Data taken from patent publication US12226432B2, “Polymer nanoparticle, polymer composition, method of making a polymer nanoparticle, method for treatment of bacterial biofilms, and method for detection of bacterial biofilms” (UNIVERSITY OF MASSACHUSETTS, priority 2016, dated 2025).

Columns and labels:
[1] = test system: uropathogenic E. coli (CD-2); assay type: cell-based; details: serial passaging at sub-MIC, CD-2 E. coli
Procedure: The culture was then harvested and tested for MIC as describe above. E. coli CD-2 was cultured without polymer as well every time as a control for comparison of MICs.
Bacteria are capable of acquiring resistance quickly towards antibiotics and other antimicrobials, minimizing their therapeutic prospects in clinical settings. […] The resulting bacterial population was defined as the first generation, harvested, and its MIC was evaluated. Subsequently, a second generation was produced by exposing first generation with 66% MIC dosage of polymers. […] Similar experiments were conducted on ciprofloxacin (quinolone) and ceftazidime ([…]), clinically relevant antibiotics.

[2] = test system: E. clocae complex CD-1412; assay: Checkerboard titration, antibiotic-nanoparticle synergy, CD-1412; assay type: cell-based, E. cloacae; details: in combination with polymer nanoparticles, FIG. 20
Procedure: (§1) To assess possible synergy between antibiotics and polymeric nanoparticles, two-dimensional checkerboard titrations were performed using a micro-dilution method. […] The checkerboard titrations were performed in a set of three independent experiments, repeated on different days.
(§2) Antibiotic-nanoparticle interaction was determined by calculating the fractional inhibitory concentration of antibiotics (FICAb) and NPs (FICNP) according to the following equations: FICAb=(MIC of antibiotic and NP combination)÷(MIC of antibiotic alone) FICNP=(MIC of antibiotic and NP combination)÷(MIC of NP alone) FICIcombination=FICAb+FICNP
(§3) FICAb was plotted against FICNP. A concave curve indicates synergy, whereas a convex curve indicates antagonism. Synergy was defined as FICI values ≤0.5, antagonism by FICI values >4.0, and additive interaction by FICI values between >0.5 and 4.0. The experiments were conducted across four different planktonic bacteria strains (E. clocae complex “CD-1412”; Pseudomonas aeruginosa “CD-40”; E. coli “CD-549”; and Acinetobacter species “CD-575”). […] In the presence of polymer nanoparticles, colistin's uptake in biofilms is enhanced nearly 3.5 times.

[3] = test system: Pseudomonas aeruginosa CD-40; assay: Checkerboard titration, antibiotic-nanoparticle synergy, CD-40; assay type: cell-based; details: in combination with polymer nanoparticles, FIG. 20
Procedure: as §1, §2, §3

E. coli CD-549 = assay: Checkerboard titration, antibiotic-nanoparticle synergy, CD-549; assay type: cell-based; details: in combination with polymer nanoparticles, FIG. 20
Procedure: as §1, §2, §3

[4] = test system: Acinetobacter species CD-575; assay: Checkerboard titration, antibiotic-nanoparticle synergy, CD-575; assay type: cell-based; details: in combination with polymer nanoparticles, FIG. 20
Procedure: as §1, §2, §3

red blood cells (RBCs) = assay: Hemolysis of red blood cells (HC50); assay type: cell-based, human
Procedure: Determination of Hemolysis of Cationic Polymers: Citrate-stabilized human whole blood (pooled, mixed gender) was purchased from Bioreclamation LLC, NY and processed as soon as received. 10 milliliters of phosphate buffered saline (PBS) was added to the blood and centrifuged at 5000 rpm for 5 minutes. The supernatant was carefully discarded and the red blood cells (RBCs) were dispersed in 10 milliliters of PBS. This step was repeated at least five times. The purified RBCs were diluted in 10 milliliters of PBS and kept on ice during the sample preparation. 0.1 milliliter of RBC solution was added to 0.4 milliliters of polymer solution in PBS in a 1.5 milliliter centrifuge tube (Fisher) and mixed gently by pipetting. RBCs incubated with PBS and water was used as negative and positive controls, respectively. All polymer samples as well as controls were prepared in triplicate. The mixture was incubated at 37° C. for 30 minutes while shaking at 150 rpm. After incubation period, the solution was centrifuged at 4000 rpm for 5 minutes and 100 microliters of supernatant was transferred to a 96-well plate. The absorbance value of the supernatant was measured at 570 nm using a microplate reader (SpectraMax M2, Molecular devices) with absorbance at 655 nm as a reference. The percent hemolysis was calculated using the following formula: […]

NIH 3T3 fibroblast cells = assay type: cell-based
Procedure: The ability to eradicate biofilms on human tissue or organs is also of significant importance. An in vitro co-culture model of mammalian fibroblast cells with biofilms grown over them was used. […] Next, P. aeruginosa bacteria was seeded on a confluent monolayer of NIH 3T3 fibroblast cells overnight to generate biofilms prior to treatment.

In the case of `CC(C)(O/N=C(\C(=O)N[C@@H]1C(=O)N2C(C(=O)[O-])=C(C[n+]3ccccc3)CS[C@H]12)c1csc(N)n1)C(=O)O` [ceftazidime], the “increase in the MICs after serial passaging” value [1] is reported as 4,200 fold.
`O=C(O)c1cn(C2CC2)c2cc(N3CCNCC3)c(F)cc2c1=O` [ciprofloxacin] was tested, and the “increase in the MICs after serial passaging” value [1] was 33,000 fold.
With colistin the “antibiotic-nanoparticle interaction (FICI)” value [2] was “therapeutically synergistic”, the “antibiotic-nanoparticle interaction (FICI)” value [3] was “therapeutically synergistic” and the “antibiotic-nanoparticle interaction (FICI)” value (E. coli CD-549) was “therapeutically synergistic”. For the same compound, the “antibiotic-nanoparticle interaction (FICI)” value [4] was “therapeutically synergistic”.
In the case of “poly(oxanorbomeneimide)undecyl trimethylammonium analog [Example 5]”, the HC50 (red blood cells (RBCs)) is reported as 4700 µg/mL and the “toxicity to NIH 3T3 fibroblast cells” value (NIH 3T3 fibroblast cells) is reported as “No significant toxicity”.
